Data reported in ChEMBL document CHEMBL5143690, “Identification of nitrofuranylchalcone tethered benzoxazole-2-amines as potent inhibitors of drug resistant Mycobacterium tuberculosis demonstrating bactericidal efficacy” (Bioorg Med Chem, 2022).
In brackets after ≈: the same amount, converted by molar mass.

How the values were obtained:
Type in all cases: functional
[1] = test system: Mycobacterium tuberculosis; experiment: Antimycobacterial activity against ethambutol-resistant Mycobacterium tuberculosis H37Rv ATCC 35837 assessed as inhibition of bacterial growth incubated for 48 hrs by resazurin microtitre assay
[2] = test system: Mycobacterium tuberculosis; experiment: Antimycobacterial activity against isoniazid-resistant Mycobacterium tuberculosis H37Rv ATCC 35822 assessed as inhibition of bacterial growth incubated for 48 hrs by broth microdilution assay
[3] = test system: Mycobacterium tuberculosis; experiment: Antimycobacterial activity against rifampicin-resistant Mycobacterium tuberculosis H37Rv ATCC 35838 assessed as inhibition of bacterial growth incubated for 48 hrs by resazurin microtitre assay
[4] = test system: Mycobacterium tuberculosis; experiment: Antimycobacterial activity against Streptomycin-resistant Mycobacterium tuberculosis H37Rv ATCC 35820 assessed as inhibition of bacterial growth incubated for 48 hrs by resazurin microtitre assay

Structure (SMILES) | MIC [1] [µg/mL] | MIC [2] [µg/mL] | MIC [3] [µg/mL] | MIC [4] [µg/mL]
O=C(/C=C/c1ccc([N+](=O)[O-])o1)c1ccc(Nc2nc3ccccc3o2)cc1 | 0.03 (≈ 0.0799 µM) | 0.06 (≈ 0.16 µM) | 0.03 (≈ 0.0799 µM) | 0.12 (≈ 0.32 µM)
Cc1ccc2oc(Nc3ccc(C(=O)/C=C/c4ccc([N+](=O)[O-])o4)cc3)nc2c1 | 0.06 (≈ 0.154 µM) | 0.12 (≈ 0.308 µM) | 0.03 (≈ 0.077 µM) | 0.06 (≈ 0.154 µM)
O=C(/C=C/c1ccc([N+](=O)[O-])o1)c1ccc(Nc2nc3cc(Cl)ccc3o2)cc1 | 0.03 (≈ 0.0732 µM) | 0.06 (≈ 0.146 µM) | 0.03 (≈ 0.0732 µM) | 0.06 (≈ 0.146 µM)
O=C(/C=C/c1ccc([N+](=O)[O-])o1)c1ccc(Nc2nc3cc([N+](=O)[O-])ccc3o2)cc1 | 0.06 (≈ 0.143 µM) | 0.25 (≈ 0.595 µM) | 0.03 (≈ 0.0714 µM) | 0.12 (≈ 0.285 µM)
O=C(/C=C/c1ccc([N+](=O)[O-])o1)c1cccc(Nc2nc3ccccc3o2)c1 | 0.06 (≈ 0.16 µM) | 0.25 (≈ 0.666 µM) | 0.03 (≈ 0.0799 µM) | 0.12 (≈ 0.32 µM)
CC[C@@H](CO)NCCN[C@@H](CC)CO [ETHAMBUTOL] | 32 (≈ 157 µM) | 1 (≈ 4.89 µM) | 1 (≈ 4.89 µM) | 1 (≈ 4.89 µM)
NNC(=O)c1ccncc1 [ISONIAZID] | 0.03 (≈ 0.219 µM) | > 64 | 0.03 (≈ 0.219 µM) | 0.03 (≈ 0.219 µM)
CO[C@H]1/C=C/O[C@@]2(C)Oc3c(C)c(O)c4c(O)c(c(/C=N/N5CCN(C)CC5)c(O)c4c3C2=O)NC(=O)/C(C)=C\C=C\[C@H](C)[C@H](O)[C@@H](C)[C@@H](O)[C@@H](C)[C@H](OC(C)=O)[C@@H]1C [RIFAMPIN] | 0.03 (≈ 0.0365 µM) | 0.03 (≈ 0.0365 µM) | 64 (≈ 77.8 µM) | 0.03 (≈ 0.0365 µM)
CN[C@@H]1[C@H](O[C@H]2[C@H](O[C@H]3[C@H](O)[C@@H](O)[C@H](N=C(N)N)[C@@H](O)[C@@H]3N=C(N)N)O[C@@H](C)[C@]2(O)C=O)O[C@@H](CO)[C@H](O)[C@H]1O [STREPTOMYCIN] | 1 (≈ 1.72 µM) | 1 (≈ 1.72 µM) | 1 (≈ 1.72 µM) | > 64
